# How the values were obtained:
# [1] = tested on: HT G-quadruplex (DNA, G4) AGGGTTAGGGTTAGGGTTAGGG; test: CD melting at 295 nm; conditions: 100 mM NaCl; 10 mM Tris-HCl pH 7.5; derived from two Tm (56.6, 61.0); highest compound concentration, ratio only in Figure 2D
# [2] = tested on: HT8 (DNA, G4) AGGGTTATGGTTAGGGTTAGGG; test: time-resolved luminescence at 620 nm; conditions: 100 mM NaCl; 10 mM Tris-HCl pH 7.5; lifetimes 1046 and 151.2 ns
# [3] = tested on: HT G-quadruplex (DNA, G4) AGGGTTAGGGTTAGGGTTAGGG; test: UV-vis absorption titration; conditions: 100 mM NaCl; 10 mM Tris-HCl pH 7.5, 25 °C; fit with [DNA] in base pairs, binding size s = 2.3; per base
# [4] = tested on: HT10 (DNA, G4) AGGGTTAGGTTTAGGGTTAGGG; test: time-resolved luminescence at 620 nm; conditions: 100 mM NaCl; 10 mM Tris-HCl pH 7.5; lifetimes 430.7 and 61.4 ns
# [5] = tested on: ds-DNA (HT with complementary sequence) (DNA, duplex) AGGGTTAGGGTTAGGGTTAGGG/CCCTAACCCTAACCCTAACCCT; test: time-resolved luminescence at 620 nm; conditions: 100 mM NaCl; 10 mM Tris-HCl pH 7.5; lifetimes 492 and 88.1 ns
# [6] = tested on: Oxyticha nova G-quadruplex (DNA, G4) GGGGTTTTGGGG; test: CD melting; conditions: 100 mM NaCl; 10 mM Tris-HCl pH 7.5; no change of Tm 59.2 °C; binds by end-stacking
# [7] = tested on: Oxyticha nova G-quadruplex (DNA, G4) GGGGTTTTGGGG; test: UV-vis absorption titration; conditions: 100 mM NaCl; 10 mM Tris-HCl pH 7.5, 25 °C; fit with [DNA] in base pairs, binding size s = 1; per base
smiles,measurement,setting,value
[Ru+2].c1ccc2nc3c4cccnc4c4ncccc4c3nc2c1.c1cnc2c(c1)ccc1cccnc12.c1cnc2c(c1)ccc1cccnc12,ΔTm,[1],4.4 °C
same,binding,[2],yes
same,K,[3],5.1e+06 M⁻¹
same,binding,[4],yes
same,binding,[5],yes
same,ΔTm,[6],0 °C
same,K,[7],990000 M⁻¹

# Reference: PMC9814642 (2021)
